Reference: patent US20230346823A1, “UTILIZATION OF VITAMIN B12 IN INHIBITING RENAL DISORDER” (Niigata University, priority 2020, published 2023)
Values belong to the molecule of their own block, whether it stands above or below them.

Experiments:
transcobalamin 2 (TCN2) [1] = target: T1, transcobalamin 2 (TCN2) (Rattus norvegicus, UniProt Q9R0D6); experiment: Competition against binding of TCN2 to contrast medium-immobilized beads, Western blotting; details: 25 ng/µL TCN2 + test substance; contrast medium beads (iomeprol, ioversol, iodixanol, iopromide, iohexol) at 10 mM feed; FIG. 6 to FIG. 10
T1 construct: purchased LifeSpan BioSciences, Inc
T1 sequence (Q9R0D6 19-427): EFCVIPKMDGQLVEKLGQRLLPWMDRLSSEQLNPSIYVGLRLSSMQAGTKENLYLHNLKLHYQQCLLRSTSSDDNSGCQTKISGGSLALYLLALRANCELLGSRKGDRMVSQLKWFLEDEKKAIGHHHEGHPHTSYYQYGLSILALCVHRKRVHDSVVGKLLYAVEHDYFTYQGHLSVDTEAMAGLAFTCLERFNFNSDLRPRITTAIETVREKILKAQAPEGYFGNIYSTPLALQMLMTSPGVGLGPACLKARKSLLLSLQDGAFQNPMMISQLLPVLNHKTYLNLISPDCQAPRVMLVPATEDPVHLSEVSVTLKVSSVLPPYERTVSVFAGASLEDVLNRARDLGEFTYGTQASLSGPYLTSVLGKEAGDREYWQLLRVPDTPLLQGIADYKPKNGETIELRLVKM
Text: Iodinated contrast media used were the bulk of iomeprol, the bulk of ioversol, the bulk of iodixanol, the bulk of iopromide, and the bulk of iohexol. Evaluations were made using these solid-phased beads.
For test chemicals for competing with the binding, vitamin B12 (cyanocobalamin, methylcobalamin, or hydroxocobalamin), cilastatin, and iomeprol (iodinated contrast medium) were used. Cilastatin and iomeprol are positive controls of inhibition.
The solution/beads combinations adopted were as mentioned below. • Solution a) + contrast medium-immobilized beads prepared at 0 mM contrast medium feed concentration (control) • Solution a) + contrast medium-immobilized beads prepared at 10 mM contrast medium feed concentration (no competition) • Solution b) + contrast medium-immobilized beads prepared at 10 mM contrast medium feed concentration (competition with vitamin B12, iomeprol, or cilastatin)

megalin [2] = target: megalin (Mus musculus, UniProt A2ARV4); details: described in PTL 1; cited from earlier work
transcobalamin 2 (TCN2) [3] = target: T1, transcobalamin 2 (TCN2); experiment: Binding of TCN2 to iomeprol-immobilized magnetic beads, Western blotting with anti-TCN2 antibody; details: feed concentrations 0, 3 and 10 mM, 25 ng/µL TCN2, 4° C., 4 hours, FIG. 5
Procedure: The bulk of iodinated contrast medium was dissolved, just before use, in a solvent in which glycidylmethacrylate-coated magnetic beads (FG beads®, particle size: 0.2 µm, produced by Tamagawa Seiki Co., Ltd.) were dispersed, to initiate chemical bonding between […] present on the surface of the magnetic beads and hydroxyl groups in the contrast medium, whereby contrast medium-immobilized magnetic beads were prepared.
The iodinated contrast medium used was the bulk of iomeprol. At feed concentrations of 0 mM, 3 mM and 10 mM, the iodinated contrast medium was immobilized by chemical bonding. The preparation of the iomeprol-immobilized beads was conducted by Tamagawa Seiki Co., Ltd. […]
The TCN2-containing samples were subjected to SDS-polyacrylamide electrophoresis under reducing conditions using 4-15% gradient gels (produced by Bio-Rad Laboratories), and the developed samples were transferred onto polyvinylidene fluoride (PVDF) membranes. […] Then, bands were detected using chemiluminescent substrate for western blotting (SuperSignal™ West Femto Maximum Sensitivity Substrate; Thermo Scientific™).

[4] = tested on: renal proximal tubular epithelial cells; experiment: Internalization of iodinated contrast medium into kidney cortex, iodine/nitrogen ratio by EPMA; format: in vivo, C57BL/6J mice; details: 100 µL iomeprol + 100 µL of 1 mg/mL cyanocobalamin, tail vein; kidneys 3 hours later; vs iomeprol + normal saline control; t-test; FIG. 1
Procedure: The prepared sections were analyzed by EPMA (EPMA1610; Shimadzu Ltd, Kyoto, Japan) by following the procedure described below to examine whether there is a difference in the internalization of a contrast medium between the contrast medium + vitamin B12-treated group and the contrast medium + normal saline-treated group.
EPMA is an electron microprobe (EMP) instrument that analyzes the constituent elements of a substance of interest by irradiating electron beams onto the substance and measuring the wavelengths and intensities of characteristic X-rays unique to the different elements, which are generated by the electron beams. The iodine content in sections can be determined by EMP analysis (Norby, et al., Scanning Microsc, 1990, vol.4, p.651-666). […] The behaviors of iodinated contrast media per se can be verified by analyzing iodine content distribution.
The “thin-film quantification” technique can be applied for analysis of biological samples such as kidney tissue sections. […]
Therefore, by calculating a ratio of characteristic X-ray intensity between iodine (I) and nitrogen (N) (I/N) in a specified area of biological samples, iodine (I) in different samples can be relatively quantified and compared.
Based on this principle, the sections obtained by the above experiment were analyzed by EPMA, and iodine in a specified area was relatively quantified and compared among the samples. […]

C57BL/6J mice = experiment: Contrast-induced renal injury model (left nephrectomy, ischemia-reperfusion, then iomeprol); details: 200 µL iomeprol + 100 µL of 1 mg/mL cyanocobalamin, vs iomeprol + normal saline
Procedure: Left kidneys were extracted from the C57BL/6J mice, and 14 days later, right kidney pedicles were ligated for 30 minutes. Thereafter, reperfusion was carried out. After 24 hours from the start of reperfusion, the C57BL/6J mice were divided into the following groups and administered with the following agents from the tail vein. • a) Contrast medium + vitamin B12-treated group: 200 µL of iomeprol + 100 µL of 1 mg/mL of cyanocobalamin solution • b) Contrast medium + normal saline-treated group (control): 200 µL of iomeprol + 100 µL of normal saline
For each of the groups, 24 hours before anatomizing, urine samples were collected using a metabolic cage, the mice were anatomized after 48 hours from the medication, then urinary kidney injury molecule-1 (KIM-1) was measured. Urinary KIM-1 measurements were conducted by Oriental Yeast Co., Ltd.
Further, right kidneys were extracted and histologically evaluated by immunostaining with KIM-1. To be specific, 3 mm-thick sections containing a kidney pedicle portion were prepared from the right kidneys, fixed with 4% paraformaldehyde phosphate buffer, sliced at a thickness of 4 µm using a microtome (REM-710; Yamato Kohki Industrial Co., Ltd.), and the obtained thin slices were immunostained with the renal injury marker KIM-1. The immunostaining was performed using VECTASTAIN Elite ABC Kit (Vector Laboratories, Inc.). […]

megalin [5] = target: T2, megalin (Rattus norvegicus, UniProt P98158); experiment: Quartz crystal microbalance (QCM) binding of transcobalamin 2 to immobilized megalin; set-up: species or system Sprague-Dawley (SD) rat; details: 1.5 µg recombinant rat transcobalamin 2 injected on megalin-immobilized quartz crystals; BSA control decreased only 20 to 30 Hz; FIG. 4
T2 construct: megalin purified from Sprague-Dawley (SD) rat kidneys; from tissue; host or cells: Sprague-Dawley rat kidneys (megalin purified by the method of Orlando et al.); TCN2 purchased from LifeSpan BioSciences
Procedure: According to the method of Orlando, et al., megalin purified from Sprague-Dawley (SD) rat kidneys was immobilized on quartz crystals. To be specific, with the use of an immobilization kit for AFFINIX® (Initium Inc.) according to the recommended protocol for the kit, a megalin solution was prepared in Buffer A as provided with the kit to a concentration of 62.5 µg/mL, and placed and immobilized on the quartz crystals mounted in a holder.
After the megalin-immobilized quartz crystals were mounted in the measurement instrument AFFINIX® Q8 (Initium Inc.) and the frequency was confirmed to be stable, recombinant rat transcobalamin 2 proteins (TCN2 LifeSpan Bio Sciences, Inc.) (1.5 µg) were injected (in total injection volume) to measure frequency over time. More specifically, after the megalin-immobilized quartz crystals were immersed in 200 µL of buffer and the frequency was confirmed to be stable, transcobalamin 2 was injected and frequency was measured. The same measurement was done on quartz crystals, as a control, on which the same amount of bovine serum albumin (BSA) was immobilized instead of megalin, and the specific binding ability of transcobalamin 2 to megalin was analyzed.

Chain of megalin (Mus musculus, UniProt A2ARV4) (A2ARV4 26-4660): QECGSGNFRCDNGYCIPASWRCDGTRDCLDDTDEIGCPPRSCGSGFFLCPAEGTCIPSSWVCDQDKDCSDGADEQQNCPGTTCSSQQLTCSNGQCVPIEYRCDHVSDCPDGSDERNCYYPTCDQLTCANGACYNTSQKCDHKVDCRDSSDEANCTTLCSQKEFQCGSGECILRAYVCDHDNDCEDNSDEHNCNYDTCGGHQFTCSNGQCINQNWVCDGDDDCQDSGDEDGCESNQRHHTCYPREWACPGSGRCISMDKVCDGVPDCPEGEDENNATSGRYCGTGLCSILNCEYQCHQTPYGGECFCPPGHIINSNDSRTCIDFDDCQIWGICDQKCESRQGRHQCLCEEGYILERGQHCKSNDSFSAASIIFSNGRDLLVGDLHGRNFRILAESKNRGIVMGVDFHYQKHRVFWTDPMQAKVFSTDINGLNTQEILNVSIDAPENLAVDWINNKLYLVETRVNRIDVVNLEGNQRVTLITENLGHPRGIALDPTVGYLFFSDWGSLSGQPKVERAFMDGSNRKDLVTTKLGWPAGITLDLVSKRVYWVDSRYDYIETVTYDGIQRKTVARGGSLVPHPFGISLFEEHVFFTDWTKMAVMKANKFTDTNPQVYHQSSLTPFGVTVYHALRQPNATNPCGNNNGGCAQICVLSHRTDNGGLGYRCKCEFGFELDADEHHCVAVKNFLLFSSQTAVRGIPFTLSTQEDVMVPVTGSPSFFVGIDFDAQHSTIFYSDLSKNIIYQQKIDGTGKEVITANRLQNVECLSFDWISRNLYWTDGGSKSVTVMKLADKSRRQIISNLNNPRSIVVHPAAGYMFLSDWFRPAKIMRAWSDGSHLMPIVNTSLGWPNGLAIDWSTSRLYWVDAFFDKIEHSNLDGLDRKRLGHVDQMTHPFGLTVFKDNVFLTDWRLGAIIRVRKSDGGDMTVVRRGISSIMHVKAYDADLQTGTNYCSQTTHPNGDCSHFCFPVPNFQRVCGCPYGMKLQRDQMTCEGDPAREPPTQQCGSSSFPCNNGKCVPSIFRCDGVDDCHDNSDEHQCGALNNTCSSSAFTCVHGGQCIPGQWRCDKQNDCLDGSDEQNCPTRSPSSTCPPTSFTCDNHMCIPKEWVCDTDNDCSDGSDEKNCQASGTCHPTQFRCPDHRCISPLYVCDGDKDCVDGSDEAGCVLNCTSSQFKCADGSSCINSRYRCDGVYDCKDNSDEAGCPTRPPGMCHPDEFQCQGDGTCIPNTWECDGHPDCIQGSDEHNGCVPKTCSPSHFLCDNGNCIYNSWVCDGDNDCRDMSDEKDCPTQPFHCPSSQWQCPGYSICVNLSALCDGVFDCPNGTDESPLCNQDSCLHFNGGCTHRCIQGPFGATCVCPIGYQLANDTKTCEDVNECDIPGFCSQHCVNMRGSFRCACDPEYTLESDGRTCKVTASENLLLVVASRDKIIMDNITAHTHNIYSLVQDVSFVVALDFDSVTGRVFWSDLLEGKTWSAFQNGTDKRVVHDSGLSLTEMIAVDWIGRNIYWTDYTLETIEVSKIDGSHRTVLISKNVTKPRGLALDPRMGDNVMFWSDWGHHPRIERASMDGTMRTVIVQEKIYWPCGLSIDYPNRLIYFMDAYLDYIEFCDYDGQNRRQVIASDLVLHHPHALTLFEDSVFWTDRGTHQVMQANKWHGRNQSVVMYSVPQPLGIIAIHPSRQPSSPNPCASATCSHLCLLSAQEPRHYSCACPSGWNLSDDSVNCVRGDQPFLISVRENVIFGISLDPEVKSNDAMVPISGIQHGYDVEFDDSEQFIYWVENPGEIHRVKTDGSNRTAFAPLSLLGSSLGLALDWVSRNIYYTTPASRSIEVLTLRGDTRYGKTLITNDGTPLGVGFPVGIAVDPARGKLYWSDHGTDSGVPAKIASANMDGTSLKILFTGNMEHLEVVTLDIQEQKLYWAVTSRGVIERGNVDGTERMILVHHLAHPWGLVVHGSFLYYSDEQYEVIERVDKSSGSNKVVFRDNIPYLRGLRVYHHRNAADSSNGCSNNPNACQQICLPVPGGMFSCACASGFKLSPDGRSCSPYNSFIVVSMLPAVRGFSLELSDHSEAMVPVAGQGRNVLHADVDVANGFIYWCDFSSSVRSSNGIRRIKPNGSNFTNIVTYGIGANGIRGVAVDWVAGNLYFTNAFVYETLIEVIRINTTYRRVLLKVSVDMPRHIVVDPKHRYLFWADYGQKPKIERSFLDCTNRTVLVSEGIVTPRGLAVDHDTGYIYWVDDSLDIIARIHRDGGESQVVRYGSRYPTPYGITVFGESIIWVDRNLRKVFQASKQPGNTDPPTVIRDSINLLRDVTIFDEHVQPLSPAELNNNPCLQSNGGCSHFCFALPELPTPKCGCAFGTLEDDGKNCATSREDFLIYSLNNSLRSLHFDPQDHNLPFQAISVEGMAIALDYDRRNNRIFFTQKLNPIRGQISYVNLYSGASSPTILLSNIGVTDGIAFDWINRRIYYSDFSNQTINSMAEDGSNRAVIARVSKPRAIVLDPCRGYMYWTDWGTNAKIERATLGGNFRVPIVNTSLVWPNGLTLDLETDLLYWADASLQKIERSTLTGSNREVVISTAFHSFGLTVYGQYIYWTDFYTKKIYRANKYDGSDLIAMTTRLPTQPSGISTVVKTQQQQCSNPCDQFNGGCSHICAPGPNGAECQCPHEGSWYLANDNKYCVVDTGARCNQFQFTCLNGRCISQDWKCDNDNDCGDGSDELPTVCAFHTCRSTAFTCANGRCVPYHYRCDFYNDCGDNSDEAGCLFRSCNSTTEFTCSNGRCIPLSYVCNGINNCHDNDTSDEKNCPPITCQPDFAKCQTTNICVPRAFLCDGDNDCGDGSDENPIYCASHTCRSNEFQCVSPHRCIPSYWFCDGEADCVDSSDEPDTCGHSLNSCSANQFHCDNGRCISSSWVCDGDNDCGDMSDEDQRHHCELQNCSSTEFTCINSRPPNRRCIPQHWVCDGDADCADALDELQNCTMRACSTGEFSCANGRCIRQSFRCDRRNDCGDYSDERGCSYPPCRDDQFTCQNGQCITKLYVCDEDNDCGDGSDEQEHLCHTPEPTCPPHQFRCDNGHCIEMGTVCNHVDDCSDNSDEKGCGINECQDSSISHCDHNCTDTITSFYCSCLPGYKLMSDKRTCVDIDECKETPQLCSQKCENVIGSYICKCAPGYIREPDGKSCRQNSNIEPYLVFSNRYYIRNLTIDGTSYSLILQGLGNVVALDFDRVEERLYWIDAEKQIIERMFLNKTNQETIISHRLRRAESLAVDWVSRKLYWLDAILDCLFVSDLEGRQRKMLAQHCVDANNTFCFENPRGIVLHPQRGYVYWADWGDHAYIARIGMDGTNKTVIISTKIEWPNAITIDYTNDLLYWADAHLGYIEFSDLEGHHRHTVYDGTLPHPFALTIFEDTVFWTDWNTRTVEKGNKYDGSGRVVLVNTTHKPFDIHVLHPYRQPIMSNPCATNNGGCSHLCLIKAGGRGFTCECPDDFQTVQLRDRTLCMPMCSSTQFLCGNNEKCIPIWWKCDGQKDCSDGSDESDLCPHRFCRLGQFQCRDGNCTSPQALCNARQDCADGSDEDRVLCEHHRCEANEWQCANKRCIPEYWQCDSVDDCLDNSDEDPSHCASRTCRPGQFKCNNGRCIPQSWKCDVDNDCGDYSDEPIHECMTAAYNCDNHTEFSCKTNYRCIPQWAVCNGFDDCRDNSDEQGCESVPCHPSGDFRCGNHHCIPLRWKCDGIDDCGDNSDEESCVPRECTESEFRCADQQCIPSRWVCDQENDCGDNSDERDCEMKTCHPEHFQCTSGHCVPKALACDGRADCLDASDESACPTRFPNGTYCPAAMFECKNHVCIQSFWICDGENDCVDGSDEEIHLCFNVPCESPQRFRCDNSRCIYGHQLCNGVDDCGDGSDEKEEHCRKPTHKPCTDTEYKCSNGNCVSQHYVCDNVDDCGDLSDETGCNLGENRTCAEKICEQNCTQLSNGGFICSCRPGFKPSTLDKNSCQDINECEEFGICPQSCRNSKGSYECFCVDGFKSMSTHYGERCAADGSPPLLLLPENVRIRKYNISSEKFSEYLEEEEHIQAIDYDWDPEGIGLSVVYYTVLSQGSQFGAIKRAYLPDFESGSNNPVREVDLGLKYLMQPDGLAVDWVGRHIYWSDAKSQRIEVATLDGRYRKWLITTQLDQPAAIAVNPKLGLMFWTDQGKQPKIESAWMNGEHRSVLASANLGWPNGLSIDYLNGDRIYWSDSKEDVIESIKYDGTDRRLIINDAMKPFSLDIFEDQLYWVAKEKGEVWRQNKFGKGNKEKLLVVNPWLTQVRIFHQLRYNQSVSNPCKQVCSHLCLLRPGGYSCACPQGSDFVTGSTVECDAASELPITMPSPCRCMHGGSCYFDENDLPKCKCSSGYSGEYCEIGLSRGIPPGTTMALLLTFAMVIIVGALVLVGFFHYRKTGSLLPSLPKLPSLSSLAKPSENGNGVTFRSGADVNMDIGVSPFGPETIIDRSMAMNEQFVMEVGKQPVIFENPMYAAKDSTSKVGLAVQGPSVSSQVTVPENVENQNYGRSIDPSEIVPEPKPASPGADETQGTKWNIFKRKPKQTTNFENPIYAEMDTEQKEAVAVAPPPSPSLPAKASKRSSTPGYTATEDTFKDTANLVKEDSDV

Molecule: CC1(C)C[C@@H]1C(=O)N/C(=C\CCCCSC[C@H](N)C(=O)O)C(=O)O [cilastatin, (Z)-7-[[(R)-2-Amino-2-carboxyethyl]thio]-2-[[[(S)-2,2-dimethylcyclopropyl]carbonyl]amino]-2-heptenoic acid]
- TCN2 bands by competition with test substance (transcobalamin 2 (TCN2) [1]): concentration-dependent decrease in TCN2 bands
- megalin-dependent internalization of iodinated contrast media into renal proximal tubular epithelial cells (megalin [2]): inhibits
- renal injuries (megalin [2]): inhibits renal injuries

Molecule: C/C1=C2/[N-][C@H]([C@H](CC(N)=O)[C@@]2(C)CCC(=O)NC[C@@H](C)OP(=O)([O-])O[C@H]2[C@@H](O)[C@@H](n3cnc4cc(C)c(C)cc43)O[C@@H]2CO)[C@]2(C)N=C(/C(C)=C3N=C(/C=C4N=C1[C@@H](CCC(N)=O)C\4(C)C)[C@@H](CCC(N)=O)[C@]\3(C)CC(N)=O)[C@@H](CCC(N)=O)[C@]2(C)CC(N)=O.[Co+3].[OH-] [hydroxocobalamin]
- TCN2 bands by competition with test substance (transcobalamin 2 (TCN2) [1]): concentration-dependent decrease in TCN2 bands

Molecule: CN(C(=O)CO)c1c(I)c(C(=O)NCC(O)CO)c(I)c(C(=O)NCC(O)CO)c1I (stereo not drawn) [iomeprol]
- TCN2 bands by competition with test substance (transcobalamin 2 (TCN2) [1]): concentration-dependent decrease in TCN2 bands
- intensity of TCN2 band from heat-eluted samples (transcobalamin 2 (TCN2) [3]): intensity of the band corresponding to TCN2 from heat-eluted samples was increased

Molecule: C/C1=C2/[N-][C@H]([C@H](CC(N)=O)[C@@]2(C)CCC(=O)NC[C@H](C)OP(=O)([O-])O[C@H]2[C@@H](O)[C@@H](n3cnc4cc(C)c(C)cc43)O[C@@H]2CO)[C@]2(C)N=C(/C(C)=C3N=C(/C=C4N=C1[C@@H](CCC(N)=O)C\4(C)C)[C@@H](CCC(N)=O)[C@]\3(C)CC(N)=O)[C@@H](CCC(N)=O)[C@]2(C)CC(N)=O.[CH3-].[Co+3] [methylcobalamin]
- TCN2 bands by competition with test substance (transcobalamin 2 (TCN2) [1]): concentration-dependent decrease in TCN2 bands

Molecule: cyanocobalamin
- TCN2 bands by competition with test substance (transcobalamin 2 (TCN2) [1]): concentration-dependent decrease in TCN2 bands
- I/N X-ray ratio (iodine/nitrogen) in kidney cortex areas [4]: significantly (t-test) lower
- expression of KIM-1 in outer cortex (immunostaining) (C57BL/6J mice; tail vein, 48 hours after medication, FIG. 2): expression of KIM-1 was decreased
- PAS staining, vacuoles degeneration (injury finding) in kidney cortex (C57BL/6J mice; FIG. 3): did not have such an injury finding

- decrease of QCM frequency (megalin [5]): about 200 Hz
B1: transcobalamin 2: Recombinant rat transcobalamin 2 protein, a transport protein for vitamin B12 (about 45 kDa) (protein, UniProt Q9R0D6 19-427, looked up)
Transcobalamin-2: EFCVIPKMDGQLVEKLGQRLLPWMDRLSSEQLNPSIYVGLRLSSMQAGTKENLYLHNLKLHYQQCLLRSTSSDDNSGCQTKISGGSLALYLLALRANCELLGSRKGDRMVSQLKWFLEDEKKAIGHHHEGHPHTSYYQYGLSILALCVHRKRVHDSVVGKLLYAVEHDYFTYQGHLSVDTEAMAGLAFTCLERFNFNSDLRPRITTAIETVREKILKAQAPEGYFGNIYSTPLALQMLMTSPGVGLGPACLKARKSLLLSLQDGAFQNPMMISQLLPVLNHKTYLNLISPDCQAPRVMLVPATEDPVHLSEVSVTLKVSSVLPPYERTVSVFAGASLEDVLNRARDLGEFTYGTQASLSGPYLTSVLGKEAGDREYWQLLRVPDTPLLQGIADYKPKNGETIELRLVKM
